Data: PubChem BioAssay (NCI)
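Assay format: 96-well plates, 48-hour exposure. TGI: total growth inhibition.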

Columns and labels:
Experiment in all cases: NCI-60 cell line screen, 48 h
OVCAR-4 ovarian = system: OVCAR-4 ovarian
SK-MEL-2 melanoma = system: SK-MEL-2 melanoma
COLO 205 colon = system: COLO 205 colon
OVCAR-8 ovarian = system: OVCAR-8 ovarian
HCT-15 colon = system: HCT-15 colon
XF 498 CNS = system: XF 498 CNS
UACC-62 melanoma = system: UACC-62 melanoma
ACHN renal = system: ACHN renal
SK-MEL-28 melanoma = system: SK-MEL-28 melanoma
SF-268 CNS = system: SF-268 CNS
NCI-H226 lung = system: NCI-H226 lung
CAKI-1 renal = system: CAKI-1 renal
U251 CNS = system: U251 CNS
LXFL 529 NSCLC = system: LXFL 529 NSCLC
DMS 114 small cell lung = system: DMS 114 small cell lung
SN12C renal = system: SN12C renal
MALME-3M melanoma = system: MALME-3M melanoma
SK-OV-3 ovarian = system: SK-OV-3 ovarian
OVCAR-5 ovarian = system: OVCAR-5 ovarian
NCI-H460 lung = system: NCI-H460 lung
MOLT-4 leukemia = system: MOLT-4 leukemia
NCI-H522 lung = system: NCI-H522 lung
HOP-18 NSCLC = system: HOP-18 NSCLC
HT29 colon = system: HT29 colon
SW-620 colon = system: SW-620 colon
HCC-2998 colon = system: HCC-2998 colon
NCI-H23 lung = system: NCI-H23 lung
SNB-78 CNS = system: SNB-78 CNS
EKVX NSCLC = system: EKVX NSCLC
786-0 renal = system: 786-0 renal
UO-31 renal = system: UO-31 renal
RPMI-8226 leukemia = system: RPMI-8226 leukemia
KM12 colon = system: KM12 colon
HOP-62 NSCLC = system: HOP-62 NSCLC
RXF-631 renal = system: RXF-631 renal
SK-MEL-5 melanoma = system: SK-MEL-5 melanoma
SNB-75 CNS = system: SNB-75 CNS
CCRF-CEM leukemia = system: CCRF-CEM leukemia
K-562 leukemia = system: K-562 leukemia
SF-539 CNS = system: SF-539 CNS
SF-295 CNS = system: SF-295 CNS
IGROV1 ovarian = system: IGROV1 ovarian
A549 NSCLC = system: A549 NSCLC
M14 melanoma = system: M14 melanoma
SNB-19 CNS = system: SNB-19 CNS
DLD-1 colon = system: DLD-1 colon
LOX IMVI melanoma = system: LOX IMVI melanoma
OVCAR-3 ovarian = system: OVCAR-3 ovarian
M19-MEL melanoma = system: M19-MEL melanoma
DMS 273 small cell lung = system: DMS 273 small cell lung
UACC-257 melanoma = system: UACC-257 melanoma

O=c1[nH]c(=O)n(C2CC(O)C(CO)O2)cc1C#Cc1cc(F)cc(F)c1 (stereo unspecified) was tested, and the TGI (OVCAR-4 ovarian) was > 100 µM, the TGI (SK-MEL-2 melanoma) was > 100 µM and the TGI (COLO 205 colon) was > 100 µM. For the same molecule, the TGI (OVCAR-8 ovarian) was > 100 µM, the TGI (HCT-15 colon) was > 100 µM and the TGI (XF 498 CNS) was > 100 µM. For the same molecule, the TGI (UACC-62 melanoma) was > 100 µM, the TGI (ACHN renal) was > 100 µM and the TGI (SK-MEL-28 melanoma) was > 100 µM. For the same molecule, the TGI (SF-268 CNS) was > 100 µM, the TGI (NCI-H226 lung) was > 100 µM and the TGI (CAKI-1 renal) was > 100 µM. For the same molecule, the TGI (U251 CNS) was > 100 µM, the TGI (LXFL 529 NSCLC) was > 100 µM and the TGI (DMS 114 small cell lung) was > 100 µM. For the same molecule, the TGI (SN12C renal) was > 100 µM, the TGI (MALME-3M melanoma) was > 100 µM and the TGI (SK-OV-3 ovarian) was > 100 µM. For the same molecule, the TGI (OVCAR-5 ovarian) was > 100 µM, the TGI (NCI-H460 lung) was > 100 µM and the TGI (MOLT-4 leukemia) was > 100 µM. For the same molecule, the TGI (NCI-H522 lung) was > 100 µM, the TGI (HOP-18 NSCLC) was 83.2 µM and the TGI (HT29 colon) was > 100 µM. For the same molecule, the TGI (SW-620 colon) was > 100 µM, the TGI (HCC-2998 colon) was > 100 µM and the TGI (NCI-H23 lung) was > 100 µM. The TGI (SNB-78 CNS) was > 100 µM, the TGI (EKVX NSCLC) was > 100 µM and the TGI (786-0 renal) was > 100 µM. The TGI (UO-31 renal) was > 100 µM, the TGI (RPMI-8226 leukemia) was > 100 µM and the TGI (KM12 colon) was > 100 µM. The TGI (HOP-62 NSCLC) was > 100 µM, the TGI (RXF-631 renal) was > 100 µM and the TGI (SK-MEL-5 melanoma) was > 100 µM. The TGI (SNB-75 CNS) was > 100 µM, the TGI (CCRF-CEM leukemia) was > 100 µM and the TGI (K-562 leukemia) was > 100 µM. For the same molecule, the TGI (SF-539 CNS) was > 100 µM, the TGI (SF-295 CNS) was > 100 µM and the TGI (IGROV1 ovarian) was > 100 µM. The TGI (A549 NSCLC) was > 100 µM, the TGI (M14 melanoma) was > 100 µM and the TGI (SNB-19 CNS) was > 100 µM. For the same molecule, the TGI (DLD-1 colon) was > 100 µM, the TGI (LOX IMVI melanoma) was > 100 µM and the TGI (OVCAR-3 ovarian) was > 100 µM. The TGI (M19-MEL melanoma) was > 100 µM, the TGI (DMS 273 small cell lung) was > 100 µM and the TGI (UACC-257 melanoma) was > 100 µM.
